Experimental data: ChEMBL document CHEMBL1144507, “Synthesis and antifungal activity of (Z)-5-arylidenerhodanines” (2007)
Values after ≈ are worked out from the molar mass of the structure shown.

Experiments:
[1] = tested on: Aspergillus fumigatus; test: Antifungal activity against Aspergillus fumigatus ATCC 26934 after 48 hrs; type: functional; settings: ATCC 26934, 48 h
[2] = tested on: Trichophyton benhamiae; test: Antifungal activity against Trichophyton mentagrophytes ATCC 9972 after 48 hrs; type: functional, Arthroderma benhamiae; settings: ATCC 9972, 48 h
[3] = tested on: Trichophyton rubrum; test: Antifungal activity against Trichophyton rubrum C113 after 48 hrs; type: functional
[4] = tested on: Cryptococcus neoformans; test: Antifungal activity against Cryptococcus neoformans ATCC 32264 after 48 hrs; type: functional; settings: ATCC 32264, 48 h
[5] = tested on: Nannizzia gypsea; test: Antifungal activity against Microsporum gypseum C115 after 48 hrs; type: functional
[6] = tested on: Saccharomyces cerevisiae; test: Antifungal activity against Saccharomyces cerevisiae ATCC 9763 after 48 hrs; type: functional; settings: ATCC 9763, 48 h
[7] = tested on: Aspergillus flavus; test: Antifungal activity against Aspergillus flavus ATCC 9170 after 48 hrs; type: functional; settings: ATCC 9170, 48 h
[8] = tested on: Aspergillus niger; test: Antifungal activity against Aspergillus niger ATCC 9029 after 48 hrs; type: functional; settings: ATCC 9029, 48 h
[9] = tested on: Candida albicans; test: Antifungal activity against Candida albicans ATCC 10231 after 48 hrs; type: functional; settings: ATCC 10231, 48 h
[10] = tested on: Cryptococcus neoformans; test: Antifungal activity against […] IM 00319 after 48 hrs; type: functional
[11] = tested on: Torulaspora delbrueckii; test: Antifungal activity against Candida coliculosa C122-2000 after 48 hrs; type: functional
[12] = tested on: Trichophyton benhamiae; test: Antifungal activity against Trichophyton mentagrophytes C364 after 48 hrs; type: functional, Arthroderma benhamiae
[13] = tested on: Candida albicans; test: Antifungal activity against Candida albicans C125-2000 after 48 hrs; type: functional
[14] = tested on: Kluyveromyces marxianus; test: Antifungal activity against Candida kefyr C123-2000 after 48 hrs; type: functional
[15] = tested on: Cryptococcus neoformans; test: Antifungal activity against […] IM 972724 after 48 hrs; type: functional
[16] = tested on: Cryptococcus neoformans; test: Antifungal activity against […] ATCC 32264 after 48 hrs; type: functional; settings: ATCC 32264, 48 h
[17] = tested on: Candida albicans; test: Antifungal activity against Candida albicans C130-2000 after 48 hrs; type: functional
[18] = tested on: Cryptococcus neoformans; test: Antifungal activity against […] IM 052470 after 48 hrs; type: functional
[19] = tested on: Cryptococcus neoformans; test: Antifungal activity against […] IM 983036 after 48 hrs; type: functional
[20] = tested on: Candida albicans; test: Antifungal activity against Candida albicans C126-2000 after 48 hrs; type: functional
[21] = tested on: Trichophyton benhamiae; test: Antifungal activity against Trichophyton mentagrophytes C738 after 48 hrs; type: functional, Arthroderma benhamiae
[22] = tested on: Candida tropicalis; test: Antifungal activity against Candida tropicalis C131-1997 after 48 hrs; type: functional
[23] = tested on: Candida albicans; test: Antifungal activity against Candida albicans C127-2000 after 48 hrs; type: functional
[24] = tested on: Cryptococcus neoformans; test: Antifungal activity against […] IM 961951 after 48 hrs; type: functional
[25] = tested on: Candida parapsilosis; test: Antifungal activity against Candida parapsilosis C124-2000 after 48 hrs; type: functional; settings: Lodderomyces parapsilosis
[26] = tested on: Candida albicans; test: Antifungal activity against Candida albicans C129-2000 after 48 hrs; type: functional
[27] = tested on: Trichophyton benhamiae; test: Antifungal activity against Trichophyton mentagrophytes C539 after 48 hrs; type: functional, Arthroderma benhamiae
[28] = tested on: Cryptococcus neoformans; test: Antifungal activity against Candida neoformans IM 983040 after 48 hrs; type: functional
[29] = tested on: Cryptococcus neoformans; test: Antifungal activity against […] IM 972751 after 48 hrs; type: functional
[30] = tested on: Cryptococcus neoformans; test: Antifungal activity against […] IM 042074 after 48 hrs; type: functional
[31] = tested on: Clavispora lusitaniae; test: Antifungal activity against Candida lusitaniae C131-2000 after 48 hrs; type: functional
[32] = tested on: Candida albicans; test: Antifungal activity against Candida albicans C128-2000 after 48 hrs; type: functional
[33] = tested on: Cryptococcus neoformans; test: Antifungal activity against […] IM 031631 after 48 hrs; type: functional; settings: Cryptococcus neoformans, 48 h
[34] = tested on: Cryptococcus neoformans; test: Antifungal activity against […] IM 031706 after 48 hrs; type: functional
[35] = tested on: Trichophyton benhamiae; test: Antifungal activity against Trichophyton mentagrophytes C943 after 48 hrs; type: functional, Arthroderma benhamiae
[36] = tested on: Trichophyton benhamiae; test: Antifungal activity against Trichophyton mentagrophytes C108 after 48 hrs; type: functional, Arthroderma benhamiae
[37] = tested on: Nakaseomyces glabratus; test: Antifungal activity against Candida glabrata C115-2000 after 48 hrs; type: functional
[38] = tested on: Pichia kudriavzevii; test: Antifungal activity against Candida krusei C117-2000 after 48 hrs; type: functional

O=C1NC(=S)S/C1=C\c1ccc(Cl)cc1
MIC [1]: 125 mg/L (≈ 489 µM)
MIC [2]: 62.5 mg/L (≈ 244 µM)
MIC [3]: 62.5 mg/L (≈ 244 µM)
MIC [4]: 15.6 mg/L (≈ 61 µM)
MIC [5]: 62.5 mg/L (≈ 244 µM)
MIC [6]: 250 mg/L (≈ 978 µM)
MIC [7]: 125 mg/L (≈ 489 µM)
MIC [8]: 250 mg/L (≈ 978 µM)
MIC [9]: 250 mg/L (≈ 978 µM)

O=C1NC(=S)S/C1=C\c1ccc2c(c1)OCO2
MIC [1]: > 250 mg/L
MIC [2]: > 250 mg/L
MIC [3]: > 250 mg/L
MIC [4]: > 250 mg/L
MIC [5]: > 250 mg/L
MIC [6]: > 250 mg/L
MIC [7]: > 250 mg/L
MIC [8]: > 250 mg/L
MIC [9]: > 250 mg/L

O=C1NC(=S)S/C1=C\[n+]1ccccc1
MIC [1]: > 250 mg/L
MIC [2]: > 250 mg/L
MIC [3]: > 250 mg/L
MIC [4]: > 250 mg/L
MIC [5]: > 250 mg/L
MIC [6]: > 250 mg/L
MIC [7]: > 250 mg/L
MIC [8]: > 250 mg/L
MIC [9]: > 250 mg/L

O=C1NC(=S)S/C1=C\c1ccc(C(F)(F)F)cc1
MFC [10]: 7.8 mg/L (≈ 27 µM)
MIC [10]: 7.8 mg/L (≈ 27 µM)
MIC50 [10]: 3.9 mg/L (≈ 13.5 µM)
MIC80 [10]: 3.9 mg/L (≈ 13.5 µM)
MIC [1]: 125 mg/L (≈ 432 µM)
MFC [11]: 62.5 mg/L (≈ 216 µM)
MIC [11]: 31.2 mg/L (≈ 108 µM)
MIC50 [11]: 15.6 mg/L (≈ 53.9 µM)
MIC80 [11]: 31.2 mg/L (≈ 108 µM)
MIC [12]: 0.97 mg/L (≈ 3.35 µM)
MFC [13]: 62.5 mg/L (≈ 216 µM)
MIC [13]: 31.2 mg/L (≈ 108 µM)
MIC50 [13]: 15.6 mg/L (≈ 53.9 µM)
MIC80 [13]: 31.2 mg/L (≈ 108 µM)
MIC [2]: 3.9 mg/L (≈ 13.5 µM)
MIC [3]: 15.6 mg/L (≈ 53.9 µM)
MFC [14]: 15.6 mg/L (≈ 53.9 µM)
MIC [14]: 7.8 mg/L (≈ 27 µM)
MIC50 [14]: 3.9 mg/L (≈ 13.5 µM)
MIC80 [14]: 7.8 mg/L (≈ 27 µM)
MFC [15]: 7.8 mg/L (≈ 27 µM)
MIC [15]: 7.8 mg/L (≈ 27 µM)
MIC50 [15]: 1.9 mg/L (≈ 6.57 µM)
MIC80 [15]: 7.8 mg/L (≈ 27 µM)
MIC [4]: 3.9 mg/L (≈ 13.5 µM)
MFC [16]: 7.8 mg/L (≈ 27 µM)
MIC [16]: 3.9 mg/L (≈ 13.5 µM)
MIC50 [16]: 3.9 mg/L (≈ 13.5 µM)
MIC80 [16]: 3.9 mg/L (≈ 13.5 µM)
MFC [17]: 62.5 mg/L (≈ 216 µM)
MIC [17]: 15.6 mg/L (≈ 53.9 µM)
MIC50 [17]: 7.8 mg/L (≈ 27 µM)
MIC80 [17]: 15.6 mg/L (≈ 53.9 µM)
MFC [18]: 12.5 mg/L (≈ 43.2 µM)
MIC [18]: 7.8 mg/L (≈ 27 µM)
MIC50 [18]: 1.9 mg/L (≈ 6.57 µM)
MIC80 [18]: 7.8 mg/L (≈ 27 µM)
MFC [19]: 7.8 mg/L (≈ 27 µM)
MIC [19]: 7.8 mg/L (≈ 27 µM)
MIC50 [19]: 1.9 mg/L (≈ 6.57 µM)
MIC80 [19]: 7.8 mg/L (≈ 27 µM)
MFC [20]: 31.2 mg/L (≈ 108 µM)
MIC [20]: 15.6 mg/L (≈ 53.9 µM)
MIC50 [20]: 15.6 mg/L (≈ 53.9 µM)
MIC80 [20]: 15.6 mg/L (≈ 53.9 µM)
MIC [21]: 1.95 mg/L (≈ 6.74 µM)
MFC [22]: 31.2 mg/L (≈ 108 µM)
MIC [22]: 15.6 mg/L (≈ 53.9 µM)
MIC50 [22]: 7.8 mg/L (≈ 27 µM)
MIC80 [22]: 15.6 mg/L (≈ 53.9 µM)
MFC [23]: 31.2 mg/L (≈ 108 µM)
MIC [23]: 15.6 mg/L (≈ 53.9 µM)
MIC50 [23]: 7.8 mg/L (≈ 27 µM)
MIC80 [23]: 15.6 mg/L (≈ 53.9 µM)
MIC [5]: 15.6 mg/L (≈ 53.9 µM)
MFC [24]: 7.8 mg/L (≈ 27 µM)
MIC [24]: 7.8 mg/L (≈ 27 µM)
MIC50 [24]: 1.9 mg/L (≈ 6.57 µM)
MIC80 [24]: 3.9 mg/L (≈ 13.5 µM)
MFC [25]: 62.5 mg/L (≈ 216 µM)
MIC [25]: 31.2 mg/L (≈ 108 µM)
MIC50 [25]: 3.9 mg/L (≈ 13.5 µM)
MIC80 [25]: 31.2 mg/L (≈ 108 µM)
MIC [6]: 15.6 mg/L (≈ 53.9 µM)
MIC [7]: 62.5 mg/L (≈ 216 µM)
MFC [26]: 31.2 mg/L (≈ 108 µM)
MIC [26]: 31.2 mg/L (≈ 108 µM)
MIC50 [26]: 15.6 mg/L (≈ 53.9 µM)
MIC80 [26]: 31.2 mg/L (≈ 108 µM)
MIC [27]: 1.95 mg/L (≈ 6.74 µM)
MFC [28]: 15.6 mg/L (≈ 53.9 µM)
MIC [28]: 7.8 mg/L (≈ 27 µM)
MIC50 [28]: 1.9 mg/L (≈ 6.57 µM)
MIC80 [28]: 7.8 mg/L (≈ 27 µM)
MFC [29]: 7.8 mg/L (≈ 27 µM)
MIC [29]: 7.8 mg/L (≈ 27 µM)
MIC50 [29]: 1.9 mg/L (≈ 6.57 µM)
MIC80 [29]: 3.9 mg/L (≈ 13.5 µM)
MFC [30]: 7.8 mg/L (≈ 27 µM)
MIC [30]: 7.8 mg/L (≈ 27 µM)
MIC50 [30]: 1.9 mg/L (≈ 6.57 µM)
MIC80 [30]: 7.8 mg/L (≈ 27 µM)
MFC [31]: 62.5 mg/L (≈ 216 µM)
MIC [31]: 31.2 mg/L (≈ 108 µM)
MIC50 [31]: 15.6 mg/L (≈ 53.9 µM)
MIC80 [31]: 31.2 mg/L (≈ 108 µM)
MFC [32]: 31.2 mg/L (≈ 108 µM)
MIC [32]: 15.6 mg/L (≈ 53.9 µM)
MIC50 [32]: 15.6 mg/L (≈ 53.9 µM)
MIC80 [32]: 15.6 mg/L (≈ 53.9 µM)
MIC [33]: 7.8 mg/L (≈ 27 µM)
MIC50 [33]: 3.9 mg/L (≈ 13.5 µM)
MIC80 [33]: 7.8 mg/L (≈ 27 µM)
MFC ([33]; read-out: MFC): 15.6 mg/L (≈ 53.9 µM)
MIC [8]: 62.5 mg/L (≈ 216 µM)
MFC [34]: 31.2 mg/L (≈ 108 µM)
MIC [34]: 7.8 mg/L (≈ 27 µM)
MIC50 [34]: 7.8 mg/L (≈ 27 µM)
MIC80 [34]: 7.8 mg/L (≈ 27 µM)
MIC [35]: 0.97 mg/L (≈ 3.35 µM)
MIC [9]: 15.6 mg/L (≈ 53.9 µM)
MIC [36]: 1.95 mg/L (≈ 6.74 µM)
MFC [37]: 15.6 mg/L (≈ 53.9 µM)
MIC [37]: 3.9 mg/L (≈ 13.5 µM)
MIC50 [37]: 3.9 mg/L (≈ 13.5 µM)
MIC80 [37]: 3.9 mg/L (≈ 13.5 µM)
MFC [38]: 31.2 mg/L (≈ 108 µM)
MIC [38]: 15.6 mg/L (≈ 53.9 µM)
MIC50 [38]: 7.8 mg/L (≈ 27 µM)
MIC80 [38]: 15.6 mg/L (≈ 53.9 µM)

O=C1NC(=S)S/C1=C\c1ccc(Br)cc1
MIC [1]: > 250 mg/L
MIC [2]: > 250 mg/L
MIC [3]: > 250 mg/L
MIC [4]: 62.5 mg/L (≈ 208 µM)
MIC [5]: > 250 mg/L
MIC [6]: 250 mg/L (≈ 833 µM)
MIC [7]: > 250 mg/L
MIC [8]: > 250 mg/L
MIC [9]: > 250 mg/L

COc1ccc(/C=C2\SC(=S)NC2=O)cc1
MIC [1]: > 250 mg/L
MIC [2]: > 250 mg/L
MIC [3]: > 250 mg/L
MIC [4]: > 250 mg/L
MIC [5]: > 250 mg/L
MIC [6]: > 250 mg/L
MIC [7]: > 250 mg/L
MIC [8]: > 250 mg/L
MIC [9]: > 250 mg/L
